These compounds were tested against T1, P2X7 receptor (Homo sapiens, UniProt Q99572) (assay: Ca++ flux assay (FLIPR) in P2X7-HEK-293 cell line stably expressing the full length P2X7 receptor, Bz-ATP activation). Conditions: P2X7-HEK-293 cells; agonist Bz-ATP; fluorescence as total area over 90 seconds; read-out: P2X7 Ca Flux hu IC50.
T1 construct: stably expressing the full length P2X7 receptor; expressed in transfected cells
T1 sequence (Q99572 1-595): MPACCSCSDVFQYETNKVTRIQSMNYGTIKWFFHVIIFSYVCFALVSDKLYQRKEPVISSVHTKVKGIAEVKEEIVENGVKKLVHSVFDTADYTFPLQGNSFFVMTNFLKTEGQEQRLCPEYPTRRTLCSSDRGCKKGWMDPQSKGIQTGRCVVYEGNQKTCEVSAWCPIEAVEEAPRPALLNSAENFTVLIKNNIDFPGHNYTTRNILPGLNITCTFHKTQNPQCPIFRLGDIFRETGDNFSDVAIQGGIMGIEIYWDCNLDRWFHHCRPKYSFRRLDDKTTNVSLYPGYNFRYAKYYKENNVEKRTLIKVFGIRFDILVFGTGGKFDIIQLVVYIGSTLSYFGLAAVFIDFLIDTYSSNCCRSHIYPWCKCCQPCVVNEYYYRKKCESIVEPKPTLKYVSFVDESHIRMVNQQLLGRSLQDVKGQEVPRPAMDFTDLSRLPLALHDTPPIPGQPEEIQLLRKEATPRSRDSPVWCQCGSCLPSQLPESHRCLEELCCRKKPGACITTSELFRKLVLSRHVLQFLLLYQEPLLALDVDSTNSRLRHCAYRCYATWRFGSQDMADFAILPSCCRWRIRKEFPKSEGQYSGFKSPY
Type: cell-based
Protocol: The ability of Triazolopyrazinone Compounds to inhibit P2X7 function can be determined in Ca^++ flux assay using a P2X7-HEK-293 cell line stably expressing the full length P2X7 receptor. The assay protocol is as described in Cheewatrakoolpong et al., Biochem. Biophys. Res. Commun. 332:17-27 (2005) with minor modification, and is as summarized hereinafter. Briefly, cells were plated in poly-D-lysine-coated wells, and incubated at 37° C. for 24 hours. Cells were then incubated for 1 hour with a loading buffer which contains a dye sensitive to changes in Ca^++ concentration (lx Calcium Plus no wash dye from Molecular Devices, Sunnyvale, Calif.). The test compounds were added to the wells in the dye loading step. Plates containing the wells were transferred to a Fluorometric Imaging Plate Reader (Molecular Devices, Sunnyvale, Calif.). The cells were activated by the addition of the P2X7 receptor agonist 2′(3) —O-(4-benzoylbenzoyl)adenosine 5′-triphosphate (Bz-ATP from Sigma-Aldrich, St. Louis, Mo.), and the fluorescence was monitored for 90 seconds. The fluorescent signal was determined as the total area over the 90 second run time. Using this protocol, representative Triazolopyrazinone Compounds, compounds 1471 were tested. Tables 3 to 6 show the concentration at which 50% of the maximum response in the Ca^++ was inhibited (IC50) for each of the test compounds.

SMILES | IC50 [µM]
Cc1c(-n2ccn3c(SCc4nc5ccccc5n4C)nnc3c2=O)cccc1C(F)(F)F [Compound 3, 3-((1-methyl-1H-benzo[d]imidazol-2-yl)methylthio)-7-(2-methyl-3-(trifluoromethyl)phenyl)-[1,2,4]triazolo[4,3-a]pyrazin-8(7H)-one] | 5.67
Cc1c(-n2ccn3c(SCc4cccc5c4-c4ccccc4C5)nnc3c2=O)cccc1C(F)(F)F [Compound 4, 3-((9H-fluoren-4-yl)methylthio)-7-(2-methyl-3-(trifluoromethyl)phenyl)-[1,2,4]triazolo[4,3-a]pyrazin-8(7H)-one] | 0.264
Cc1cccc(-c2ccccc2CSc2nnc3c(=O)n(-c4cccc(C(F)(F)F)c4C)ccn23)c1 [Compound 5, 7-(2-methyl-3-(trifluorornethyl)phenyl)-3-((3'-methylbiphenyl-2-yl)methylthio)-[1,2,4]triazolo[4,3-a]pyrazin-8(7H)-one] | 0.0304
Cc1ccc(-c2ccccc2CSc2nnc3c(=O)n(-c4cccc(C(F)(F)F)c4C)ccn23)s1 [Compound 6, 7-(2-methyl-3-(trifluoromethyl)phenyl)-3-(2-(5-methylthiophen-2-yl)benzylthio)-[1,2,4]triazolo[4,3-a]pyrazin-8(7H)-one] | 0.037
Cc1ccc(-c2ccccc2CSc2nnc3c(=O)n(-c4cccc(C(F)(F)F)c4C)ccn23)cc1 [Compound 7, 7-(2-methyl-3-(trifluoromethyl)phenyl)-3-((4′-methylbiphenyl-2-yl)methylthio)-[1,2,4]triazolo[4,3-a]pyrazin-8(7H)-one] | 0.0667
Cc1c(-n2ccn3c(SCc4ccccc4-c4ccc(C(F)(F)F)cc4)nnc3c2=O)cccc1C(F)(F)F [Compound 8, 7-(2-methyl-3-(trifluoromethyl)phenyl)-3-((4′-(trifluoromethyl)biphenyl-2-yl)rnethylthio)-[1,2,4]triazolo[4,3-a]pyrazin-8(7H)-one] | 0.905
Cc1c(-n2ccn3c(SCc4ccccc4-c4ccc(Cl)cc4)nnc3c2=O)cccc1C(F)(F)F [Compound 9, 3-((4′-chlorobiphenyl-2-yl)nrethylthio)-7-(2-methyl-3-(trifluoromethyl)phenyl)-[1,2,4]triazolo[4,3-a]pyrazin-8(7H)-one] | 0.102
Cc1c(-n2ccn3c(SCc4ccccc4-c4ccc(F)cc4)nnc3c2=O)cccc1C(F)(F)F [Compound 10, 3-((4′-fluorobiphenyl-2-yl)rnethylthio)-7-(2-methyl-3-(trifluoromethyl)phenyl)-[1,2,4]triazolo[4,3-a]pyrazin-8(7H)-one] | 0.0426
Cc1c(-n2ccn3c(SCc4ccccc4I)nnc3c2=O)cccc1C(F)(F)F [Compound 11] | 0.106
Cc1c(-n2ccn3c(SCc4ccccc4Br)nnc3c2=O)cccc1C(F)(F)F [Compound 12, 3-(2-bromobenzylthio)-7-(2-methyl-3-(trifluoromethyl)phenyl)-[1,2,4]triazolo[4,3-a]pyrazin-8(7H)-one] | 0.107
Cc1c(-n2ccn3c(SCc4cccc(F)c4Cl)nnc3c2=O)cccc1C(F)(F)F [Compound 13, 3-(2-chloro-3-fluorobenzylthio)-7-(2-methyl-3-(trifluoromethyl)phenyl)-[1,2,4]triazolo[4,3-a]pyrazin-8(7H)-one] | 0.13
Cc1c(-n2ccn3c(SCc4ccsc4)nnc3c2=O)cccc1C(F)(F)F [Compound 14, 7-(2-methyl-3-(trifluoromethyl)phenyl)-3-(thiophen-3-ylmethylthio)-[1,2,4]triazolo[4,3-a]pyrazin-8(7H)-one] | 0.0381
Cc1c(-n2ccn3c(SCc4cccs4)nnc3c2=O)cccc1C(F)(F)F [Compound 15, 7-(2-methyl-3-(trifluoromethyl)phenyl)-3-(thiophen-2-ylmethylthio)-[1,2,4]triazolo[4,3-a]pyrazin-8(7H)-one] | 0.0304

The next lines start with the values.

IC50 [µM] | SMILES
0.286 | Cc1c(Cl)cccc1-n1ccn2c(SCc3cccc(F)c3Cl)nnc2c1=O [Compound 16, 7-(3-chloro-2-methylphenyl)-3-(2-chloro-3-fluorobenzylthio)-[1,2,4]triazolo[4,3-a]pyrazin-8(7H)-one]
0.543 | Cc1onc(-c2ccccc2)c1CSc1nnc2c(=O)n(-c3cccc(C(F)(F)F)c3C)ccn12 [Compound 17, 7-(2-methyl-3-(trifluoromethyl)phenyl)-3-((5-methyl-3-phenylisoxazo1-4-yl)methylthio)-[1,2,4]triazolo[4,3-a]pyrazin-8(7H)-one]
0.0569 | Cc1c(-n2ccn3c(SCc4ccccc4C(C)(C)C)nnc3c2=O)cccc1C(F)(F)F [Compound 18, 3-(2-tert-butylbenzylthio)-7-(2-methyl-3-(trifluoromethyl)phenyl)-[1,2,4]triazolo[4,3-a]pyrazin-8(7H)-one]
0.165 | Cc1c(Cl)cccc1-n1ccn2c(SCc3ccccc3C(C)(C)C)nnc2c1=O [Compound 19, 3-(2-tent-butylbenzylthio)-7-(3-chloro-2-methylphenyl)-[1,2,4]triazolo[4,3-a]pyrazin-8(7H)-one]
0.144 | Cc1c(-n2ccn3c(SCc4ccccc4Oc4ccccc4)nnc3c2=O)cccc1C(F)(F)F [Compound 20, 7-(2-methyl-3-(trifluoromethyl)phenyl)-3-(2-phenoxybenzylthio)-[1,2,4]triazolo[4,3-a]pyrazin-8(7H)-one]
0.0849 | [2H]c1c([2H])c([2H])c(CSc2nnc3c(=O)n(-c4cccc(C(F)(F)F)c4C)ccn23)c([2H])c1[2H] [Compound 21, deuterated-7-[2-methyl-3-(trifluoromethyl)phenyl]-3-[(phenyl-(d5)-methy)thio]-1,2,4-triazolo[4,3-a]pyrazin-8(7H)-one]
1.45 | Cc1c(-n2ccn3c(SC(C(=O)c4ccccc4)c4ccccc4)nnc3c2=O)cccc1C(F)(F)F (stereo not shown) [Compound 22, 7-(2-methyl-3-(trifluoromethyl)phenyl)-3-(2-oxo-1,2-diphenylethylthio)-[1,2,4]triazolo[4,3-a]pyrazin-8(7H)-one]
0.0404 | Cc1c(-n2ccn3c(SCc4ccccc4-c4cccs4)nnc3c2=O)cccc1C(F)(F)F [Compound 23, 7-(2-methyl-3-(trifluoromethyl)phenyl)-3-(2-(thiophen-2-yl)benzylthio)-[1,2,4]triazolo[4,3-a]pyrazin-8(7H)-one]
1.01 | Cc1c(Cl)cccc1-n1ccn2c(SCc3ccccc3B(O)O)nnc2c1=O [Compound 24, 2-((7-(3-chloro-2-methylphenyl)-8-oxo-7,8-dihydro-[1,2,4]triazolo[4,3-a]pyrazin-3-ylthio)rnethyl)phenylboronic acid]
0.0417 | O=c1c2nnc(SC(c3ccccc3)c3ccccc3)n2ccn1-c1cccc(C(F)(F)F)c1Cl [Compound 25, 3-(benzhydrylthio)-7-(2-chloro-3-(trifluoromethyl)phenyl)-[1,2,4]triazolo[4,3-a]pyrazin-8(7H)-one]
0.047 | O=c1c2nnc(SC3c4ccccc4-c4ccccc43)n2ccn1-c1cccc(C(F)(F)F)c1Cl [Compound 26, 3-(9H-fluoren-9-ylthio)-7-(2-chloro-3-(trifluoromethyl)phenyl)-[1,2,4]triazolo[4,3-a]pyrazin-8(7H)-one]
0.166 | O=c1c2nnc(SCc3cccc4ccccc34)n2ccn1-c1cccc(C(F)(F)F)c1Cl [Compound 27, 7-(2-chloro-3-(trifluoromethyl)phenyl)-3-(naphthalen-1-ylmethylthio)-[1,2,4]triazolo[4,3-a]pyrazin-8(7H)-one]

From patent US20130196986A1 (priority 2010, published 2013)
